Experimental data reported in patent US20220235065A1 (Epizyme, Inc., priority 2016, published 2022).

How the values were obtained:
[1] = target: T1, EHMT1 (Homo sapiens, UniProt Q9H9B1); experiment: EHMT1 PEP (EHMT1 peptide enzyme assay); assay type: biochemical; conditions: peptide substrate enzyme assay
T1 sequence (Q9H9B1 1-1298): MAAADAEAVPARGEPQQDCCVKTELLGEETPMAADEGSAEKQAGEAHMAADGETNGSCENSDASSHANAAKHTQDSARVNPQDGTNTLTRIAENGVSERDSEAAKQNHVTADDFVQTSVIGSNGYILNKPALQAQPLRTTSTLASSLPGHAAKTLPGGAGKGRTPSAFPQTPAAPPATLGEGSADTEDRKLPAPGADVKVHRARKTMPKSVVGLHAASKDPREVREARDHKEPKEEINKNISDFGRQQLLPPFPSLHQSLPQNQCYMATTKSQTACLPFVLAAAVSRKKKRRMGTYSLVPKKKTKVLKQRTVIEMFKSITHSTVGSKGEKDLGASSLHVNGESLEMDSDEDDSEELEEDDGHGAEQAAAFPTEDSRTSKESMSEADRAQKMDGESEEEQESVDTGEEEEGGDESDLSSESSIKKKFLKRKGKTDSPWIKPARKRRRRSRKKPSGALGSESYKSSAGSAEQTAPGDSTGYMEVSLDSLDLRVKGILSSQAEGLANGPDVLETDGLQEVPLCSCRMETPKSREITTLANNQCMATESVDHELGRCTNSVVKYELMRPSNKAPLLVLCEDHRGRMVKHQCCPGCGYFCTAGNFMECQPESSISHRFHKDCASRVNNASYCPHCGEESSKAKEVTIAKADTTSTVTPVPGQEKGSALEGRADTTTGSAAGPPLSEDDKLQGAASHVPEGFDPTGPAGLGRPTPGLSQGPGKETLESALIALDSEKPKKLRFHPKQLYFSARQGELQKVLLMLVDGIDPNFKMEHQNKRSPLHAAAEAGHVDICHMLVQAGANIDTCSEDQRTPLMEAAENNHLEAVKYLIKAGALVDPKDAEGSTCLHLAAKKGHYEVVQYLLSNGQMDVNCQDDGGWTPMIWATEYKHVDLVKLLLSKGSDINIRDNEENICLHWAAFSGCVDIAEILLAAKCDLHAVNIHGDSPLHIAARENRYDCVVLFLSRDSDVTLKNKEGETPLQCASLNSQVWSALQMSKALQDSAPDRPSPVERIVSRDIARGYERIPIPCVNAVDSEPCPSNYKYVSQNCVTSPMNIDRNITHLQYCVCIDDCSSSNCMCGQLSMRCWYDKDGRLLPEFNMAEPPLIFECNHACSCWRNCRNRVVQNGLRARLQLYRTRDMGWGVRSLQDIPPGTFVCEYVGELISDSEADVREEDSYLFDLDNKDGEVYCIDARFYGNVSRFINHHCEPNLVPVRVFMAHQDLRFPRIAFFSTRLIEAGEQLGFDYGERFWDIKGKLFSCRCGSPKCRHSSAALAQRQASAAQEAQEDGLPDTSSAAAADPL

[2] = target: T2, recombinant purified human EHMT2 913-1193 (Homo sapiens, UniProt Q96KQ7); experiment: EHMT2 enzyme assay on histone peptide substrate (3H-SAM Flashplate); assay type: biochemical; conditions: read-out: EHMT2 PEP (IC50 μM)
T2 construct: Recombinant purified human EHMT2 913-1193 (55 μM) synthesized by Viva was used for all experiments; purchased Viva
T2 sequence (Q96KQ7 913-1193): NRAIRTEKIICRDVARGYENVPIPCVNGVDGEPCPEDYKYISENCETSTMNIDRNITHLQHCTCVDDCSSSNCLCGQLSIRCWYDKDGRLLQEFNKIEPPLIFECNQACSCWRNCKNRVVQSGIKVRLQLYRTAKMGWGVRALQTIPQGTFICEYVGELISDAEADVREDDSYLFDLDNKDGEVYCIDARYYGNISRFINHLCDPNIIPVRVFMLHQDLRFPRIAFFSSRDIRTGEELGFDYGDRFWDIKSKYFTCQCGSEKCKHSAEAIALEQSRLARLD
Method: Recombinant purified human EHMT2 913-1193 (55 μM) synthesized by Viva was used for all experiments. Biotinylated histone peptides were synthesized by Biopeptide and HPLC-purified to >95% purity. Streptavidin Flashplates and seals were purchased from PerkinElmer and 384 Well V-bottom Polypropylene Plates were from Greiner. ^3H-labeled S-adenosylmethionine (3H-SAM) was obtained from American Radiolabeled Chemicals with a specific activity of 80 Ci/mmol. Unlabeled SAM and S-adenosylhomocysteine (SAH) were obtained from American Radiolabeled Chemicals and Sigma-Aldrich respectively. Flashplates were washed in a Biotek ELx-405 with 0.1% Tween. 384-well Flashplates and 96-well filter binding plates were read on a TopCount microplate reader (PerkinElmer). Compound serial dilutions were performed on a Freedom EVO (Tecan) and spotted into assay plates using a Thermo Scientific Matrix PlateMate (Thermo Scientific). Reagent cocktails were added by Multidrop Combi (Thermo Scientific).
General Procedure for EHMT2 Enzyme Assay on Histone Peptide Substrate.
10-point curves of test compounds were made on a Freedom EVO (Tecan) using serial 3-fold dilutions in DMSO, beginning at 2.5 mM (final top concentration of compound was 50 μM and the DMSO was 2%). A 1 μL aliquot of the inhibitor dilution series was spotted in a polypropylene 384-well V-bottom plate (Greiner) using a Thermo Scientific Matrix PlateMate (Thermo Scientific). The 100% inhibition control consisted of 1 mM final concentration of the product inhibitor S-adenosylhomocysteine (SAH, Sigma-Aldrich). Compounds were incubated for 30 minutes with 40 μL per well of 0.031 nM EHMT2 (recombinant purified human EHMT2 913-1193, Viva) in 1× assay buffer (20 mM Bicine [pH 7.5], 0.002% Tween 20, 0.005% Bovine Skin Gelatin and 1 mM TCEP). 10 μL per well of substrate mix comprising assay buffer, ^3H-SAM (3H-labeled S-adenosylmethionine, American Radiolabeled Chemicals, specific activity of 80 Ci/mmol), unlabeled SAM (American Radiolabeled Chemicals), and peptide representing histone H3 residues 1-15 containing C-terminal biotin (appended to a C-terminal amide-capped lysine, synthesized by Biopeptide and HPLC-purified to greater than 95% purity) were added to initiate the reaction (both substrates were present in the final reaction mixture at their respective Km values, an assay format referred to as “balanced conditions”). Reactions were incubated for 60 minutes at room temperature and quenched with 10 μL per well of 400 μM unlabeled SAM, then transferred to a 384-well streptavidin Flashplate (PerkinElmer) and washed in a Biotek ELx-405 well washer with 0.1% Tween after 60 minutes. 384-well Flashplates were read on a TopCount microplate reader (PerkinElmer).
IC50 curves were generated using triplicate wells per concentration of compound. The IC50 is the concentration of compound at which measured methylation is inhibited by 50% as interpolated from the dose response curves. IC50 values were calculated using a non-linear regression (variable slope-four parameter fit model) with by the following formula
where Top is fixed at 100% and Bottom is fixed to 0%, [I]=concentration of inhibitor, IC50=half maximal inhibitory concentration and n=Hill Slope.

Compound	IC50 [1] [µM]	IC50 [2] [µM]
CNc1cc(C)nc(Nc2ccc(Cl)c(C(=O)Nc3ncco3)c2)n1 [Compound 249]	0.1 to 1	–
CNc1cc(C)nc(Nc2ccc(C)c(C(=O)Nc3cc(C#N)ccn3)c2)n1 [Compound 303]	–	1 to 10

The next lines start with the values.

IC50 [1] [µM]	IC50 [2] [µM]	Compound
< 0.1	< 0.1	CNCc1cnn(-c2cc(Nc3nc(C)cc(NC)n3)ccc2C#N)c1 [Compound 332]
< 0.1	< 0.1	CNc1cc(C)nc(Nc2ccc(OC)c(-n3cc([C@@H]4CCCN4)cn3)c2)n1 [Compound 333]
< 0.1	< 0.1	CNc1cc(C)nc(Nc2ccc(OC)c(-n3cc([C@H]4CCCN4)cn3)c2)n1 [Compound 334]
